Counter-ions that a name gives are not always drawn.
Legend:
Assay type in all cases: in vivo
[1] = system: common barnyardgrass (Echinochloa crus-galli); assay: Herbicidal effect, foliar spray pot test (Example 349); settings: sprayed 21 days after seeding, evaluated after 4 days, rating 0 to 100
Description: (§1) The formulation (1-41) was produced in the same manner as in Example 348.
(§2) After filling a plastic pot with soil, common barnyardgrass (Echinochloa crus-galli) and Italian ryegrass (Lolium multiflorum) were seeded therein and grown in a greenhouse. The weeds were then cultivated in the greenhouse, and 21 days after seeding, a spray liquid containing the formulation (1-41) and/or EnlistOne (670 g/L of 2,4-D choline salt, manufactured by Dow AgroSciences) prepared so that the application rate of the compound (I-41) might be 20 g/ha and the application rate of EnlistOne might be 798 g/ha as an equivalent of 2,4-D choline salt (1.754 L/ha (24 fluid ounce/acre) as […]) was uniformly sprayed above the pot using a spraying machine so that the spray liquid amount might be 218 L/ha. Thereafter, the weeds were grown in the greenhouse for 4 days and the herbicidal effect was evaluated.
(§3) From the results of the herbicidal effect (value of A or B) for the single use of each of the compounds, the expected value of the herbicidal effect when the compounds were combined was determined according to the Colby's equation: […]

[2] = system: Italian ryegrass (Lolium multiflorum); assay: as above; settings: sprayed 21 days after seeding, evaluated after 4 days, rating 0 to 100
Description: as §1, §2, §3

[3] = system: common barnyardgrass (Echinochloa crus-galli); assay: Herbicidal effect, foliar spray pot test (Example 346); settings: sprayed 17 days after seeding, evaluated after 4 days, rating 0 to 100
Description: (§4) The compound (I-15) (55 mg), 76.5 mg of Emulsogen TS290 (polyoxyethylene tristyryl phenyl ether, manufactured by Clariant) and 76.5 mg of Phenylsulfonat CAL (mixture of 70% calcium dodecylbenzenesulfonate and 30% iso-butanol, manufactured by Clariant) were dissolved in Solvesso 200ND (aromatic hydrocarbon, manufactured by Exxon Mobile Corporation) to make 1 ml in total, thus producing an emulsifiable concentrate (hereinafter referred to as formulation (I-15)).
(§5) After filling a plastic pot with soil, common barnyardgrass (Echinochloa crus-galli) and Italian ryegrass (Lolium multiflorum) were seeded therein and grown in a greenhouse. The weeds were then cultivated in the greenhouse, and 17 days after seeding, a spray liquid containing the formulation (1-15) and/or Roundup PowerMax (660 g/L of glyphosate potassium salt, manufactured by Monsanto Company) prepared so that the application rate of the compound (I-15) might be 20 g/ha and the application rate of Roundup PowerMax might be 1262 g/ha as an equivalent of glyphosate acid (2.338 L/ha (32 fluid ounce/acre) as Roundup PowerMax) was uniformly sprayed above the pot using a spraying machine so that the spray liquid amount may be 218 L/ha. Thereafter, the weeds were grown in the greenhouse for 4 days and the herbicidal effect was evaluated.
as §3

[4] = system: Italian ryegrass (Lolium multiflorum); assay: as above; settings: sprayed 17 days after seeding, evaluated after 4 days, rating 0 to 100
Description: as §4, §5, §3

[5] = system: common barnyardgrass (Echinochloa crus-galli); assay: Herbicidal effect, foliar spray pot test (Example 347); settings: sprayed 17 days after seeding, evaluated after 4 days, rating 0 to 100
Description: (§6) The formulation (I-15) was produced in the same manner as in Example 346.
(§7) After filling a plastic pot with soil, common barnyardgrass (Echinochloa crus-galli) and Italian ryegrass (Lolium multiflorum) were seeded therein and grown in a greenhouse. The weeds were then cultivated in the greenhouse, and 17 days after seeding, a spray liquid containing the formulation (1-15) and/or Xtendimax (350 g/L of dicamba diglycolamine salt, manufactured by Monsanto Company) prepared so that the application rate of the compound (I-15) might be 20 g/ha and the application rate of Xtendimax might be 560 g/ha as an equivalent of dicamba acid (1.608 L/ha (22.0 fluid ounce/acre) as Xtendimax) was uniformly sprayed above the pot using a spraying machine so that the spray liquid amount might be 218 L/ha. Thereafter, the weeds were grown in the greenhouse for 4 days and the herbicidal effect was evaluated.
as §3

[6] = system: Italian ryegrass (Lolium multiflorum); assay: as above; settings: sprayed 17 days after seeding, evaluated after 4 days, rating 0 to 100
Description: as §6, §7, §3

[7] = system: weeds; assay: Examples 1 to 23 with compound (I-15) replaced by another compound (I) (Examples 24 to 115); settings: as Examples 1 to 23 with compound (I-15) replaced; used with pyroxasulfone, saflufenacil, flumioxazin and/or glyphosate-potassium salt; crop soybean, corn or cotton
[8] = system: common barnyardgrass (Echinochloa crus-galli); assay: Herbicidal effect, foliar spray pot test (Example 348); settings: sprayed 17 days after seeding, evaluated after 4 days, rating 0 to 100
Description: as §4, with “(I-41)” for “(I-15)”, “(I-41)).” for “(I-15)).”
(§8) After filling a plastic pot with soil, common barnyardgrass (Echinochloa crus-galli) and Italian ryegrass (Lolium multiflorum) were seeded therein and grown in a greenhouse. The weeds were then cultivated in the greenhouse, and 17 days after seeding, a spray liquid containing the formulation (1-41) and/or Liberty (280 g/L of glufosinate ammonium salt, manufactured by Bayer) prepared so that the application rate of the compound (I-41) might be 20 g/ha and the application rate of Liberty might be 594 g/ha as glufosinate ammonium salt (2.12 L/ha (29.0 fluid ounce/acre) as Liberty) was uniformly sprayed above the pot using a spraying machine so that the spray liquid amount might be 218 L/ha. Thereafter, the weeds were grown in the greenhouse for 4 days and the herbicidal effect was evaluated.
as §3

[9] = system: Italian ryegrass (Lolium multiflorum); assay: as above; settings: sprayed 17 days after seeding, evaluated after 4 days, rating 0 to 100
Description: as §4, with “(I-41)” for “(I-15)”, “(I-41)).” for “(I-15)).”
as §8, §3

[10] = 2,4-D choline salt 798 g/ha (EnlistOne) alone
[11] = compound (I-15) 20 g/ha alone, 218 L/ha
[12] = compound (I-41) 20 g/ha alone, 218 L/ha
[13] = dicamba diglycolamine salt 560 g/ha (dicamba acid equivalent, Xtendimax) alone
[14] = glufosinate ammonium salt 594 g/ha (Liberty) alone
[15] = glyphosate potassium salt 1,262 g/ha (glyphosate acid equivalent, Roundup PowerMax) alone

## C[N+](C)(C)CCO.O=C([O-])COc1ccc(Cl)cc1Cl [2,4-D choline salt, reference compound]
[1]; [10]
  Herbicidal effect Observed value: 10
[2]; [10]
  Herbicidal effect Observed value: 5

## COC(=O)C(C)OC(=O)C1(Oc2cc(-n3c(=O)cc(C(F)(F)F)n(C)c3=O)c(F)cc2Cl)CC1 (centres unmarked) [Compound (I-15)]
[3]; [11]
  Herbicidal effect Observed value: 70
[4]; [11]
  Herbicidal effect Observed value: 20
[5]; [11]
  Herbicidal effect Observed value: 70
[6]; [11]
  Herbicidal effect Observed value: 20

## CCOC(=O)C(C)OC(=O)C1(Oc2cc(-n3c(=O)cc(C(F)(F)F)n(C)c3=O)c(F)cc2Cl)CC1 (centres unmarked) [Compound (I-29)]
[7]
  weed control effect compared to the single use of each of the compounds: synergistic weed control effect

## CCOC(=O)C(C)(C)OC(=O)C1(Oc2cc(-n3c(=O)cc(C(F)(F)F)n(C)c3=O)c(F)cc2Cl)CC1 [Compound (I-30)]
[7]
  weed control effect compared to the single use of each of the compounds: synergistic weed control effect

## CCOC(=O)C(CC)OC(=O)C1(Oc2cc(-n3c(=O)cc(C(F)(F)F)n(C)c3=O)c(F)cc2Cl)CC1 (centres unmarked) [Compound (I-33)]
[7]
  weed control effect compared to the single use of each of the compounds: synergistic weed control effect

## CCOC(=O)C1(OC(=O)C2(Oc3cc(-n4c(=O)cc(C(F)(F)F)n(C)c4=O)c(F)cc3Cl)CC2)CC1 [Compound (I-41)]
[7]
  weed control effect compared to the single use of each of the compounds: synergistic weed control effect
[8]; [12]
  Herbicidal effect Observed value: 50
[9]; [12]
  Herbicidal effect Observed value: 20
[1]; [12]
  Herbicidal effect Observed value: 70
[2]; [12]
  Herbicidal effect Observed value: 20

## COc1c(Cl)ccc(Cl)c1C(=O)O.NCCOCCO [Dicamba diglycolamine salt, dicamba diglycolamine salt, reference compound]
[5]; [13]
  Herbicidal effect Observed value: 5
[6]; [13]
  Herbicidal effect Observed value: 0

## CP(=O)(O)CCC(N)C(=O)O (centres unmarked) [Glufosinate ammonium salt, glufosinate ammonium salt, reference compound]
[8]; [14]
  Herbicidal effect Observed value: 70
[9]; [14]
  Herbicidal effect Observed value: 40

## O=C(O)CNCP(=O)(O)O [Glyphosate potassium salt, reference compound]
[3]; [15]
  Herbicidal effect Observed value: 30
[4]; [15]
  Herbicidal effect Observed value: 10
